In patent US20060111305A1, “Metabolites of certain [1,4]diazepino[6,7,1-ij]quinoline derivatives and methods of preparation and use thereof” (Wyeth, priority 2004, published 2006):

Tests used:
[1] = tested on: cryopreserved human hepatocytes; experiment: Incubation of [14C]DCDQ with cryopreserved human hepatocytes; assay type: in vitro ADME; conditions: 4 hours
Experimental: Vials containing cryopreserved human hepatocytes were thawed in a 37° C. water bath with gentle shaking until the ice was almost melted. The vials were removed from the water bath and gentle shaking continued at room temperature for 30-60 seconds until completely thawed. The hepatocyte suspensions from each vial were immediately transferred to pre-cooled 50 mL beakers on ice. To each beaker, 12 mL of ice-cold hepatocyte suspension media was added dropwise over one minute, with occasional, gentle shaking by hand to prevent the cells from settling. The cell suspensions were transferred to a 15 mL tube and centrifuged at 100 g force for 3 min at 4° C. (Model T21 super centrifuge, Sorvall). The supernatant was discarded and the pellets were re-suspended in 4 mL of ice-cold hepatocyte culture media. The cell suspensions contained approximately 3.1×10^6 viable hepatocytes/mL. The average viability was 76.0% as determined using Trypan Blue exclusion and a hemacytometer.
The cell suspensions were distributed into 12-well plates at 1.0 mL per well. Incubations were performed using pooled hepatocytes from two donors. [^14C]DCDQ in water was added to the hepatocyte suspension at a final concentration of 10 or 50 μM. Incubations were carried out at 37° C. for 4 hours in an incubator supplied with 5% CO2. At the end of the incubation, the reaction was stopped by the addition of 200 μL cold methanol to each well. The content of each well was transferred to a 15 mL centrifuge tube and sonicated for 30 seconds. After vortex mixing with 6 mL methanol and then centrifugation, the supernatant was transferred to a clean tube and evaporated to about 0.5 mL in a TurboVap evaporator. The residue was analyzed by HPLC and LC/MS.
A Waters model 2690 HPLC system (Waters Corp., Milford, Mass.) with a built-in autosampler was used for analysis. […] A variable wavelength UV detector set to monitor 250 nm and Flo-One β Model A525 radioactivity flow detector (Perkin Elmer) with a 250 μL LQTR flow cell were used for data acquisition. […]

[2] = Rat urinary excretion and metabolite profiles after single oral 5 mg/kg [14C]DCDQ; assay type: in vivo, Sprague-Dawley rats; conditions: for radioactive dose recovered in urine: male rats; for Chromatographic distribution of radioactivity in male rat urine / Percentage of dose for urinary metabolites in rats: oral 5 mg/kg, mean n = 3
Experimental: At sacrifice, blood samples were collected by cardiac puncture into tubes containing EDTA as the anticoagulant and placing them on ice. Aliquots of 50 μL were removed for combustion and determination of radioactivity content. Plasma was immediately obtained from the remaining blood by centrifugation at 4° C. Brains were excised after perfusion with 50 mL of chilled sterile saline. Urine samples were collected on dry ice at intervals of 0-8 and 8-24 hour post-dosing. Feces were collected at intervals of 0-8 and 8-24 hr post-dosing at room temperature and were homogenized as described previously. The biological specimens and aliquots of the dosing solution at pre- and post-dose were stored at approximately −70° C. until analyzed.
Plasma (20 μL) and urine (50 μL) aliquots were analyzed for radioactivity concentrations. Radioactivity determinations of dose, plasma and urine were made with a Tri-Carb Model 3100 TR/LL liquid scintillation counter (LSC) (Perkin Elmer) using 10 mL of Ultima Gold as the scintillation fluid.
Urine was analyzed for radioactivity concentration as and analyzed for metabolite profiles by direct injection onto the HPLC column. LC/MS analyses for metabolite identification were also carried out with urine samples.
A Waters model 2690 HPLC system (Waters Corp., Milford, Mass.) with a built-in autosampler was used for analysis. Separations were accomplished on a Phenomenex Luna C18(2) column (150×2.0 mm, 5 μm) (Phenomenex, Torrance, Calif.). The sample chamber of the autosampler was maintained at 4° C., while the column was at ambient temperature of about 20° C. A variable wavelength UV detector set to monitor 250 nm and a Flo-One β Model A525 radioactivity detector described above were used for data acquisition. The HPLC mobile phase consisted of 10 mM ammonium acetate, pH 4.5 (A) and methanol (B), and was delivered at 0.2 mL/min. Chromatographic condition A was used for dose analysis, while condition B was used for analysis of urine and plasma, brain and fecal extracts.

SMILES | relative abundance of metabolite in human hepatocytes ([1]; 50 μM DCDQ) | Chromatographic distribution of radioactivity in male rat urine ([2]; 0-8 hr) [%] | Percentage of dose for urinary metabolites in rats ([2]; 0-8 hr) [%] | Percentage of dose for urinary metabolites in rats ([2]; 0-24 hr) [%] | Chromatographic distribution of radioactivity in male rat urine ([2]; 8-24 hr) [%] | Percentage of dose for urinary metabolites in rats ([2]; 8-24 hr) [%] | metabolite detected in human hepatocyte incubations ([1]; 10 or 50 μM DCDQ) | radioactive dose recovered in urine ([2]; 0-8 hour period) [%] | radioactive dose recovered in urine ([2]; 8-24 hour period) [%] | radioactive dose recovered in urine ([2]; first 24 hours post-dose) [%]
c1cc2c3c(c1)[C@H]1CCC[C@H]1CN3CCNC2 [[^14C]DCDQ] |  |  |  |  |  |  |  | 32.5 | 34.2 | 66.7±5.0
c1cc2c3c(c1)[C@H]1CCC[C@H]1CN3CCNC2 [DCDQ, (9aR,12aS)-4,5,6,7,9,9a,10,11,12,12a-decahydro-cyclopenta[c][1,4]diazepine[6,7,1-ij]quinoline, reference compound] |  | 1.29 | 0.42 |  | 1.46 | 0.51 |  |  |  | 

Continued, in another order:

relative abundance of metabolite in human hepatocytes ([1]; 50 μM DCDQ) | Chromatographic distribution of radioactivity in male rat urine ([2]; 0-8 hr) [%] | Percentage of dose for urinary metabolites in rats ([2]; 0-8 hr) [%] | Percentage of dose for urinary metabolites in rats ([2]; 0-24 hr) [%] | Chromatographic distribution of radioactivity in male rat urine ([2]; 8-24 hr) [%] | Percentage of dose for urinary metabolites in rats ([2]; 8-24 hr) [%] | metabolite detected in human hepatocyte incubations ([1]; 10 or 50 μM DCDQ) | SMILES | radioactive dose recovered in urine ([2]; 0-8 hour period) [%] | radioactive dose recovered in urine ([2]; 8-24 hour period) [%] | radioactive dose recovered in urine ([2]; first 24 hours post-dose) [%]
most prominent metabolite |  |  |  |  |  |  | O=C(O)[C@H]1O[C@@H](OC(=O)N2CCN3C[C@@H]4CCC[C@@H]4c4cccc(c43)C2)[C@H](O)[C@@H](O)[C@@H]1O [Metabolite M6, carbamoyl glucuronide of DCDQ] |  |  | 
 | 26.9 | 8.67 | 16.4 | 22.5 | 7.74 |  | OC1CN2C[C@@H]3CCC[C@@H]3c3cccc(c32)CN1 (stereo partly drawn) [Metabolite M1, hydroxy DCDQ] |  |  | 
 | 9.68 | 3.16 | 6.60 | 10.1 | 3.44 | detected | O=C1CC[C@@H]2c3cccc4c3N(CCNC4)C[C@H]12 [Metabolite M7, 17-keto DCDQ] |  |  | 
 | 9.51 | 3.16 | 5.09 | 5.83 | 1.94 |  | OC1[C@@H]2CCC[C@@H]2c2cccc3c2N1CCNC3 (stereo partly drawn) [Metabolite M2, hydroxy DCDQ] |  |  | 
